Measured values from patent US20230020507A1, “COMPOUND AND USE THEREOF IN TREATING AUTOIMMUNE DISEASES” (PARENCHYMA BIOTECH INC., priority 2019, published 2023).

Legend:
[1] = system: Foxp3+ regulatory T cells; assay: In vitro regulatory T cell (Foxp3+ Treg) production from human peripheral blood CD4 T cells; assay type: cell-based; conditions: anti-CD3/anti-CD28, TGFβ-1, IL-2, 2.5 μM, 7 days
Description: Human peripheral blood (AllCells) and phosphate buffered saline (PBS) were mixed in a ratio of 1:1 to prepare a mixture, followed by allowing the mixture to slowly rise so as not to be mixed into the upper layer of Histopaque (Sigma). After centrifugation at 350 g for 20 minutes, only the monocyte layer in the middle layer was collected and washed with HBSS (Hanks' Balanced Salt Solution, Gibco®). After washing with MACS buffer (Miltenyi Biotec) once more to obtain T-cells, positive selection (autoMACS seperator, Miltenyi Biotec) was performed with CD4 Microbeads (Miltenyi Biotec). The T-cells collected by the above method were prepared by resuspending the cells in RPMI-fetal bovine serum (FBS) 10%+2-ME (mercaptoethanol) medium at 5×10^5/ml. For T-cell activation, 10 μg/ml anti-CD3 (eBioscience™) was dispensed by 150 μl into a 48-well plate, reacted in a cell incubator (37° C., 5% CO2 incubator) for 3 hours, and washed with phosphate buffered saline to prepare the plate. 250 μl of resuspended T-cells was dispensed onto the prepared plate, and each well was treated with 2 μg/ml of anti-CD28 (eBioscience™), 5 ng/ml of TGFβ-1 (R&D systems), and 50 U/ml of IL-2 (Miltenyi Biotec). Each 5 μl of compounds at a concentration of 2.5 μM diluted in RPMI+2ME medium was used for treatment, followed by culturing the same in a cell incubator (37° C., 5% CO2 incubator) for 7 days. As a control, 5 μl of 0.05% dimethylsulfoxide (DMSO)/RPMI medium was used for treatment. After 7 days, in order to confirm effects of producing regulatory T cells, the cultured cells were recovered to determine the presence of Foxp3 protein.
The recovered cells were placed in a 5 ml FACS tube (BD Falcon) and washed with 1 ml of phosphate buffered saline. The cells were resuspended in 0.1 ml of FACS buffer (0.1% NaN3, 1% FBS) and treated with 1 μg of human immunoglobulin G (Human IgG, Sigma) to prevent non-specific binding of the antibody. After reacting at 4° C. for 15 minutes, the cells were washed with FACS buffer. Then, 1 ml of Fixation/Permeabilization solution (eBioscience™) was added to the FACS tube containing each sample, followed by reaction at 4° C. for 1 hour. Thereafter, the product was washed twice with a Permeabilization buffer (eBioscience™). Then, 0.25 μg of Foxp3 monoclonal antibody (eBioscience™) was used for treatment, followed by staining the sample for 4 to 30 minutes. The cells were washed twice with the permeabilization buffer, suspended in 0.3 ml of FACS buffer, and measured by flow cytometry.

[2] = system: C57BL/6 mice with DSS-induced inflammatory bowel disease; assay: DSS-induced inflammatory bowel disease model, severity index and colon weight:length ratio; assay type: in vivo, mouse; conditions: 20 mg/kg oral daily, compared to solvent control; for inflammatory bowel disease severity index: 2nd to 11th day, 10th day of the experiment; for colon weight:length ratio (intestinal inflammation): 15th day of the experiment
Description: The 1.5% DSS solution was changed at an interval of 2 days. Sterile distilled water was provided for drinking from the 8th day of the experiment. Body weight and severity index were measured at an interval of 2 days from the 0th day of the experiment in order to confirm the onset of inflammatory bowel disease.
20 mg/kg of the compound per mouse was completely dissolved in DMSO corresponding to 10% (v/v) of the administered dose, and then diluted in a cremophor EL-phosphate buffered saline mixture in order to produce the final DMSO:Cremophor EL:phosphate buffered saline (1:1:8, v/v/v), followed by oral administration of 200 μl daily for a total of 10 times from the 2nd to 11th days of the experiment. An inflammatory bowel disease severity index was visually observed and recorded at an interval of 2 days according to a severity index system classified into 0 to 10 levels.
Inflammatory bowel disease symptoms were evaluated by summing the scores of three items according to the following items (Table 3).

[3] = system: IL-1β, IL-6, IL-17A, TNF-α, IL-10 and Foxp3 expression in colon lesions; assay: mRNA expression of inflammatory and immunomodulatory factors in colon of DSS mice (real-time PCR); assay type: in vivo, mouse; conditions: 20 mg/kg oral, 15th day, compared to solvent control
Description: On the 15th day of the experiment, the colon of the mouse was excised to prepare an mRNA sample. In order to extract mRNA, the colon tissue was ground with a homogenizer to acquire a homogeneous suspension. […] From the isolated RNA, cDNA was synthesized by reverse transcription followed by confirming the expression of inflammatory cytokines through real-time polymerase chain reaction (PCR) using iQ SYBR-Green Supermix (Bio-rad) in the CFX96 (Bio-rad) detection system. Relative values of the enzyme expression levels were compared by the ΔΔct method using GAPDH as a control enzyme. Herein, one (1) fold was set using the normal mouse colon as a control.
The real-time polymerase chain reaction was implemented under the conditions of cycles at an annealing temperature of 58′° C. and the following primer sequences were used.

[4] = system: C57BL/6 mice with autoimmune encephalomyelitis (EAE); assay: Experimental autoimmune encephalomyelitis (EAE) model of multiple sclerosis, severity index; assay type: in vivo, mouse; conditions: 20 mg/kg intraperitoneally daily 12th to 17th day
Description: On day 0, myelin oligodendrocyte glycoproteins 35-55 (MOG 35-55, Peptron) (200 μg), heat-killed Mycobacterium tuberculosis (Difco, Cat No. 231141) (500 μg), and adjuvant (Complete Freund's adjuvant, Sigma Aldrich, Cat No. F5506) were mixed together and then submerged for 7 minutes. After subcutaneous injection of 100 μl of the submerged peptide into both flanks of each of C57BL/6 mice (7 weeks old, female, 17±2 g), 100 μl of pertussis toxin (Sigma Aldrich. Cat No. P2980) (200 ng) was administered intravenously to the tail.
On the 2nd day of the experiment, the same amount of pertussis toxin was administered intravenously. The mice were checked for immersion leaking from the injected site, and visually observed from the 7th day of the experiment in order to confirm the onset of multiple sclerosis.
The multiple sclerosis index was visually observed and recorded at an interval of 2 days from the 7th day of the experiment in the severity index system classified into 0-5 stages, and autoimmune encephalomyelitis symptoms were indexed according to the following items (see Table 4).

[5] = system: IFN-γ, IL-17A, IL-1β, IL-10 and Foxp3 expression in spinal cord lesions; assay: mRNA expression of inflammatory and immunomodulatory factors in spinal cord of EAE mice (real-time PCR); assay type: in vivo, mouse; conditions: 20 mg/kg i.p., 42nd day, compared to solvent control
Description: On the 42nd day of the experiment, the spinal cord of the mouse was excised to prepare an mRNA sample. In order to extract mRNA, the spinal cord tissue was ground with a homogenizer to obtain a homogeneous suspension. […] Then, cDNA was synthesized from the isolated RNA by reverse transcription, and the expression of inflammatory cytokines was investigated through real-time polymerase chain reaction (PCR) using iQ SYBR-Green Supermix (Bio-rad) in the CFX96 (Bio-rad) detection system. Relative values of the enzyme expression levels were compared by the ΔΔct method using GAPDH as a control enzyme. Herein, one (1) fold was set using the WT mouse spinal cord as a control.
The real-time polymerase chain reaction was implemented under the conditions of cycles at an annealing temperature of 58° C., and the following primer sequences were used.

[6] = scale 0-5, solvent control 3.33±0.17

Compound | generation of Foxp3+ regulatory T cells [1] | inflammatory bowel disease severity index [2] | colon weight:length ratio (intestinal inflammation) [2] | also measured
Cc1nc(NC(=O)Cc2c[nH]c3ccc(F)cc23)ccc1Br [Compound 2, N-(5-bromo-6-methylpyridin-2-yl)-2-(5-fluoro-1H-indol-3-yl)acetamide] | promoted |  |  | 
Cc1nc(NC(=O)Cc2c[nH]c3ccccc23)ccc1Br [Compound 5, N-(5-bromo-6-methylpyridin-2-yl)-2-(1H-indol-3-yl)acetamide] | promoted |  |  | 
Cc1nc(NC(=O)Cc2c[nH]c3ccc(Cl)cc23)ccc1Br [Compound 8, N-(5-bromo-6-methylpyridin-2-yl)-2-(5-chloro-1H-indol-3-yl)acetamide] | promoted | statistically significant therapeutic effects | significantly suppressed | expression level of Foxp3 in the colon lesion [3]: significantly increased; expression level of IL-1β in colon lesions [3]: significantly reduced; expression level of IL-6 in colon lesions [3]: significantly reduced; expression level of IL-10 in the colon lesion [3]: significantly increased; expression level of IL-17A in colon lesions [3]: significantly reduced; expression level of TNF-α in colon lesions [3]: significantly reduced; treatment effects on EAE severity index compared to solvent control from the 16th day, maintained after administration was stopped [4]: statistically significant treatment effects; severity index (EAE), 18th day, acute reaction period [4, 6]: 1.17±0.56; severity index (EAE), 36th day, chronic reaction period [4, 6]: 1.17±0.56; expression level of Foxp3 in spinal cord lesions [5]: significantly increased; expression level of IFN-γ in the spinal cord lesion [5]: significantly reduced; expression level of IL-1β in the spinal cord lesion [5]: significantly reduced; expression level of IL-10 in spinal cord lesions [5]: significantly increased; expression level of IL-17A in the spinal cord lesion [5]: significantly reduced
O=C(Cc1c[nH]c2ccccc12)Nc1ccc(Cl)c(F)n1 [Compound 23, N-(5-chloro-6-fluoropyridin-2-yl)-2-(1H-indol-3-yl)acetamide] | promoted |  |  | 
CN(C(=O)Cc1c[nH]c2ccccc12)c1nc2ccccc2s1 [Compound 44, N-(benzo[di]thiazol-2-yl)-2-(1H-indol-3-yl)-N-methyl acetamide] | promoted | statistically significant therapeutic effects | significantly suppressed | 
CN(C(=O)Cc1c[nH]c2ccc(Cl)cc12)c1nc2ccccc2s1 [Compound 47] | promoted |  |  | 
CN(C(=O)Cc1c[nH]c2ccc(F)cc12)c1nc2ccccc2s1 [Compound 60, N-(benzo[di]thiazol-2-yl)-2-(5-fluoro-1H-indol-3-yl)-N-methyl acetamide] |  | statistically significant therapeutic effects | significantly suppressed | 
COc1cc(NC(=O)Cc2c[nH]c3ccccc23)cc(OC)c1OC [Compound 71, 2-(1H-indol-3-yl)-N-(3,4,5-trimethoxyphenyl)acetamide] | promoted |  |  | 
O=C(Cc1c[nH]c2ccccc12)Nc1cc(Cl)cc(Cl)c1 [Compound 81, N-(3,5-dichlorophenyl)-2-(1H-indol-3-yl)acetamide] | promoted |  |  | 
